Test system: Aedes aegypti mosquitoes
Assay: Drug effect on mosquito fecundity (eggs laid after 96 h)
Type: in vivo
Description: The mixtures were rotated at room temperature for 30 min to ensure a uniform drug distribution (Rotator Genie, Scientific Industries, Bohemia, USA). […] Twelve hours later, the tap water was also removed to starve the mosquitoes. […] The mosquitoes were then feeding from blood through the netting and the Parafilm membrane. […] The photoperiod of the climate chamber and the insectary were synchronised. […] The engorged mosquitoes were either directly frozen at -20°C or returned to the climate chamber for certain time periods to assess the PK. […] Blood feeding was done as described above. […] In contrast to the PK experiments, the mosquitoes had unlimited access to water because a moistened oviposition substrate was inserted into the paper cup. Fecundity was defined as the total number of eggs laid after 96 h. […] The filter paper served as the oviposition substrate. The cotton wool was soaked with fresh water and covered by a new filter paper after 48, 72, and 96 h post-treatment. After the assay, the eggs were left to mature for 24 h in the insectary. […] R Foundation for Statistical Computing, http://www.R-project.org, Vienna, Austria). Normality was assessed using the Shapiro-Wilk test. For normally distributed data (mortality, fecundity), group differences were assessed with one-way ANOVA testing, and, where applicable, followed up with Tukey's test. Group differences in fertility (not normally distributed) were evaluated with Kruskal-Wallis one-way analysis of variance, and Wilcoxon rank sum testing as post-hoc.

[1] = 4 days, IVM 0.1, KCZ 5, RIF 10, RTV 10, PBO 10 μg/ml in blood, 50 mosquitoes

Structure (SMILES): CCC(C)C1OC2(CCC1C)CC1CC(CC=C(C)C(OC3CC(OC)C(OC4CC(OC)C(O)C(C)O4)C(C)O3)C(C)C=CC=C3COC4C(O)C(C)=CC(C(=O)O1)C34O)O2 (stereo not shown) [ivermectin]
- Mosquito fecundity, Batch 1, mg eggs (4 days) [1]: 18.22 mg eggs
- Mosquito fecundity, Batch 2, mg eggs (4 days) [1]: 8.65 mg eggs
- Mosquito fecundity, Batch 3, mg eggs (4 days) [1]: 16.69 mg eggs
- Effect on number of mosquito eggs (fecundity) compared to blank blood (four days, IVM 0.1, RTV 10, PBO 10 μg/ml in blood): reduced the number of mosquito eggs

Source: publication PMC7968666, “The pharmacokinetics and drug-drug interactions of ivermectin in Aedes aegypti mosquitoes” (PLoS Pathogens, 2021)
